Test [1] has as its target T1, Prostaglandin G/H synthase 2 (Homo sapiens) (UniProt P35354).
T1 sequence (whole entry): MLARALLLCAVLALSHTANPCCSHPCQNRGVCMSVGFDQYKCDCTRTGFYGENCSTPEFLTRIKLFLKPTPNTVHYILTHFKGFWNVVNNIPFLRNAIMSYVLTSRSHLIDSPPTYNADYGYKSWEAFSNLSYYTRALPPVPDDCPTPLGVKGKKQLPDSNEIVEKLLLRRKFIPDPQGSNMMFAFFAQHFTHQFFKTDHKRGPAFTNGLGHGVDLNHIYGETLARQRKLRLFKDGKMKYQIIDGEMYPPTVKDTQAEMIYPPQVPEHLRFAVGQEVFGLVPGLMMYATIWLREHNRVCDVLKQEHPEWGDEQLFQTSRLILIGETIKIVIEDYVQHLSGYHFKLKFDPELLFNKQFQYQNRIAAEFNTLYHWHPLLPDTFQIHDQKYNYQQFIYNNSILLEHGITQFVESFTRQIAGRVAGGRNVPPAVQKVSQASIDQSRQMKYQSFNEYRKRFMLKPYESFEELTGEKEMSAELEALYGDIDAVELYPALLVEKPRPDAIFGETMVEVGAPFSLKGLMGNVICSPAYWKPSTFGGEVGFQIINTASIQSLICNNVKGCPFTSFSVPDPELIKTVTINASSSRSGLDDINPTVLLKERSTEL
As to the kind of experiment: In vitro percent inhibition of prostaglandin G/H synthase 2 at 100 uM in microsomal enzyme assay.

Test [2] deals with T2, Prostaglandin G/H synthase 2 (Homo sapiens, UniProt P35354).
T2 sequence (P35354 whole entry): T1 sequence (whole entry)
The test can be described thus: In vitro inhibitory concentration against prostaglandin G/H synthase 2 in microsomal enzyme assay.

On to `CS(=O)(=O)c1ccc(C2=C(c3ccccc3)S(=O)OC2)cc1` (configuration not stated), for which the inhibition in test [1] was determined as 13%. The compound further registered an IC50 in test [2] of more than 100 µM.

(Values after ChEMBL document CHEMBL1143529, “A general carbometalation, three component coupling strategy for the synthesis of alpha,beta-unsaturated gamma-sultines including thio-rofecoxib, a selective COX-2 inhibitor” (Bioorg Med Chem Lett, 2005).)
